For 34 compounds, IC50 results are on record in patent US20180186755A1, “LYSYL OXIDASE-LIKE 2 INHIBITORS AND USES THEREOF” (PharmAkea, Inc., priority 2015, published 2018).

Counter-ions that a name gives are not always drawn.

The IC50 is the concentration needed to halve the response being measured.

This assay concerns the target T1, human LOXL2 (Homo sapiens, UniProt Q9Y4K0).
T1 construct: expressed in transfected cells; 10-20x concentrated conditioned media used as the enzyme source
T1 sequence (Q9Y4K0 26-774): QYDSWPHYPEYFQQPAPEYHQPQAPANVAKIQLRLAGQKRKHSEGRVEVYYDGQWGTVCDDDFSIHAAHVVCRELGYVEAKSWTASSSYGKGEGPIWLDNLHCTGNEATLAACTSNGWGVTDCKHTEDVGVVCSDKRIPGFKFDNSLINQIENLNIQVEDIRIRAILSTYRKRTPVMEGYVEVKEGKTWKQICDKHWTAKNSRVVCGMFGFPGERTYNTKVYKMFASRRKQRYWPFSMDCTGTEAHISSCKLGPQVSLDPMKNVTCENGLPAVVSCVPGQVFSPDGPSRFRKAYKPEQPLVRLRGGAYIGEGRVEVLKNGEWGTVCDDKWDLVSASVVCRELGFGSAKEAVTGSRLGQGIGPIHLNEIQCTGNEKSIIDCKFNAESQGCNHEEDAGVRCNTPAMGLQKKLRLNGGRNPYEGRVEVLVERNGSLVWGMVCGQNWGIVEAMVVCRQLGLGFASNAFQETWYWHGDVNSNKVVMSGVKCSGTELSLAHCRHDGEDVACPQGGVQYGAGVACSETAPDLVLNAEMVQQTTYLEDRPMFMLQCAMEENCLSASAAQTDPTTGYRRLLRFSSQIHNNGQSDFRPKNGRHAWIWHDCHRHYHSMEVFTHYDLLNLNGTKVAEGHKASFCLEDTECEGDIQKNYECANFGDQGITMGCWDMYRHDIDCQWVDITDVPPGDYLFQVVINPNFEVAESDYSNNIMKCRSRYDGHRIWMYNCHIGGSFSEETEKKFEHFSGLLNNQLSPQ
Description: Human LOXL2 amine oxidase activity assay (Amplex Red fluorescence). The format is biochemical. As to conditions: concentrated conditioned media from CHO cells stably expressing human LOXL2; 2 h at 37° C. preincubation; DAP substrate. The procedure, abridged:
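Enzyme source: 10-20× concentrated conditioned media from CHO cells stably expressing human LOXL2, preincubated with compound for 2 h at 37° C in 50 mM borate pH 8. Reaction started with 1,5-diaminopentane plus Amplex Red/HRP; fluorescence (ex 544/em 590) read kinetically for 1 hour, activity from linear slope.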
Turning to `NCc1cc(OCc2cccc(C(=O)NCCN3CCOC3=O)c2)ncn1` [Compound 1-38, 3-(((6-(Aminomethyl)pyrimidin-4-yl)oxy)methyl)-N-(2-(2-oxooxazolidin-3-yl)ethyl)benzamide], the IC50 is < 100 nM.

Turning to `NCc1cc(Oc2cccc(C(=O)N3CCN(c4ccccn4)CC3)c2)ncn1` [Compound 1-58, (3-((6-(Aminomethyl)pyrimidin-4-yl)oxy)phenyl)(4-(pyridin-2-yl)piperazin-1-yl)methanone], the IC50 was < 100 nM. On to `NCc1cc(Oc2cccc(C(=O)Nc3ccccc3)c2)ncn1` [Compound 1-3, 3-((6-(Aminomethyl)pyrimidin-4-yl)oxy)-N-phenylbenzamide hydrochloride], for which the IC50 is < 100 nM. Under `NCc1cc(OCc2cccc(C(=O)NCc3nc4ccccc4o3)c2)ncn1` [Compound 1-83, 3-(((6-(Aminomethyl)pyrimidin-4-yl)oxy)methyl)-N-(benzo[d]oxazol-2-ylmethyl)benzamide] stands < 100 nM. Then `NCc1cc(Oc2cccc3c2ccn3Cc2cccc(C(=O)O)c2)ncn1` [Compound 1-28, 3-((4-((6-(Aminomethyl)pyrimidin-4-yl)oxy)-1H-indol-1-yl)methyl)benzoic acid], with < 100 nM. Then `NCc1cc(Oc2cccc(C(=O)NCc3cc4ccccc4s3)c2)ncn1` [Compound 1-6, 3-((6-(Aminomethyl)pyrimidin-4-yl)oxy)-N-(benzo[b]thiophen-2-ylmethyl)benzamide hydrochloride], with < 100 nM. On to `NCc1cc(Oc2cccc(C(=O)NCc3ccccc3)c2)ncn1` [Compound 1-56, 3-((6-(Aminomethyl)pyrimidin-4-yl)oxy)-N-benzylbenzamide], for which the IC50 is < 100 nM. Under `NCc1cc(OCc2cccc(C(=O)NCc3cc4cccnc4[nH]3)c2)ncn1` [Compound 1-87, N-((1H-pyrrolo[2,3-b]pyridin-2-yl)methyl)-3-(((6-(aminomethyl)pyrimidin-4-yl)oxy)methyl)benzamide] stands < 100 nM; under `NCc1cc(Oc2cccc3c2ccn3Cc2ccccc2)ncn1` [Compound 1-26, (6-((1-Benzyl-1H-indol-4-yl)oxy)pyrimidin-4-yl)methanamine], < 100 nM. Then `NCc1cc(OCc2cccc(C(=O)NCc3ccccc3)c2)ncn1` [Compound 1-41, 3-(((6-(Aminomethyl)pyrimidin-4-yl)oxy)methyl)-N-benzylbenzamide], with < 100 nM; and `CS(=O)(=O)CCNC(=O)c1cccc(Oc2cc(CN)ncn2)c1` [Compound 1-12, 3-((6-(Aminomethyl)pyrimidin-4-yl)oxy)-N-(2-(methylsulfonyl)ethyl)benzamide hydrochloride], with < 100 nM. Take `NCc1cc(Oc2cccc(C(=O)N3C[C@@H](O)[C@H](F)C3)c2)ncn1` (racemic) [Compound 1-11, Racemic-trans-(3-((6-(aminomethyl)pyrimidin-4-yl)oxy)phenyl)(3-fluoro-4-hydroxypyrrolidin-1-yl)methanone hydrochloride]: the IC50 was < 100 nM.

Consider `NCc1cc(Oc2cccc(C(=O)NCCO)c2)ncn1` [Compound 1-9, 3-((6-(Aminomethyl)pyrimidin-4-yl)oxy)-N-(2-hydroxyethyl)benzamide hydrochloride], for which the IC50 is < 100 nM. Under `NCc1cc(OCc2cccc(C(=O)NCc3cccnc3)c2)ncn1` [Compound 1-79, 3-(((6-(Aminomethyl)pyrimidin-4-yl)oxy)methyl)-N-(pyridin-3-ylmethyl)benzamide] stands < 100 nM. For the compound `Cc1n[nH]c2c1CN(C(=O)c1cccc(Oc3cc(CN)ncn3)c1)CC2` [Compound 1-70, (3-((6-(Aminomethyl)pyrimidin-4-yl)oxy)phenyl)(3-methyl-6,7-dihydro-1H-pyrazolo[4,3-c]pyridin-5(4H)-yl)methanone], the IC50 was < 100 nM. Under `CS(=O)(=O)CCN1C(=O)CCc2c(Oc3cc(CN)ncn3)cccc21` [Compound 1-47, 5-((6-(Aminomethyl)pyrimidin-4-yl)oxy)-1-(2-(methylsulfonyl)ethyl)-3,4-dihydroquinolin-2(1H)-one] stands < 100 nM; under `NCc1cc(Oc2cccc(C(=O)NCc3cc4cccnc4[nH]3)c2)ncn1` [Compound 1-67, N-((1H-Pyrrolo[2,3-b]pyridin-2-yl)methyl)-3-((6-(aminomethyl)pyrimidin-4-yl)oxy)benzamide], < 100 nM.

On to `NCc1cc(N2C(=O)CCc3c(OCc4ccccc4)cccc32)ncn1` [Compound 1-107, 1-(6-(Aminomethyl)pyrimidin-4-yl)-5-(benzyloxy)-3,4-dihydroquinolin-2(1H)-one], for which the IC50 was < 100 nM. Under `NCc1cc(NCc2cccc(C(=O)NCc3sc4ccccc4c3Cl)c2)ncn1` [Compound 1-98, 3-(((6-(Aminomethyl)pyrimidin-4-yl)amino)methyl)-N-((3-chlorobenzo[b]thiophen-2-yl)methyl)benzamide] stands < 100 nM. Under `NCc1cc(OCc2cccc(C(=O)NCCn3cccn3)c2)ncn1` [Compound 1-39, N-(2-(1H-Pyrazol-1-yl)ethyl)-3-(((6-(aminomethyl)pyrimidin-4-yl)oxy)methyl)benzamide] stands < 100 nM; under `NCc1cc(Oc2cccc3c2ccn3CCO)ncn1` [Compound 1-48, 2-(4-((6-(Aminomethyl)pyrimidin-4-yl)oxy)-1H-indol-1-yl)ethan-1-ol], < 100 nM; under `NCc1cc(Oc2cccc(C(=O)NCc3cccnc3)c2)ncn1` [Compound 1-54, 3-((6-(Aminomethyl)pyrimidin-4-yl)oxy)-N-(pyridin-3-ylmethyl)benzamide], < 100 nM.

Consider `NCc1cc(OCc2cccc(C(=O)N3CCc4c([nH]c5ncccc45)C3)c2)ncn1` [Compound 1-90, (3-(((6-(Aminomethyl)pyrimidin-4-yl)oxy)methyl)phenyl)(5H-pyrrolo[2,3-b:5,4-c′]dipyridin-7(6H,8H,9H)-yl)methanone], for which the IC50 was < 100 nM. Regarding `NCc1cc(Oc2cccc(C(=O)N3CCc4ccc(Cl)cc43)c2)ncn1` [Compound 1-50, (3-((6-(Aminomethyl)pyrimidin-4-yl)oxy)phenyl)(6-chloroindolin-1-yl)methanone], the IC50 was < 100 nM. Then `NCc1cc(-n2ccc3c(CO)cccc32)ncn1` [Compound 1-99, (1-(6-(Aminomethyl)pyrimidin-4-yl)-1H-indol-4-yl)methanol], with 100 to 1000 nM; and `NCc1cc(OCc2cccc(C(=O)N3CCc4cccnc4C3)c2)ncn1` [Compound 1-88, (3-(((6-(Aminomethyl)pyrimidin-4-yl)oxy)methyl)phenyl)(5,6-dihydro-1,7-naphthyridin-7(8H)-yl)methanone], with < 100 nM; and `NCc1cc(NCc2cccc(C(=O)Nc3ccc(C(=O)O)cc3)c2)ncn1` [Compound 1-44, 4-(3-(((6-(Aminomethyl)pyrimidin-4-yl)amino)methyl)benzamido)benzoic acid], with 100 to 1000 nM. `NCc1cc(Oc2cccc(C(=O)N3CCN(c4ncc(Cl)cc4Cl)CC3)c2)ncn1` [Compound 1-73, (3-((6-(Aminomethyl)pyrimidin-4-yl)oxy)phenyl)(4-(3,5-dichloropyridin-2-yl)piperazin-1-yl)methanone]: the IC50 is < 100 nM. Then `NCc1cc(Oc2cccc(C(=O)NCc3sc4ccccc4c3Cl)c2)ncn1` [Compound 1-64, 3-((6-(Aminomethyl)pyrimidin-4-yl)oxy)-N-((3-chlorobenzo[b]thiophen-2-yl)methyl)benzamide], with < 100 nM; and `NCc1cc(OCc2cccc(C(=O)Nc3ccccc3)c2)ncn1` [Compound 1-40, 3-(((6-(Aminomethyl)pyrimidin-4-yl)oxy)methyl)-N-phenylbenzamide], with < 100 nM. Then `Cc1n[nH]c2c1CN(C(=O)c1cccc(COc3cc(CN)ncn3)c1)CC2` [Compound 1-89, (3-(((6-(Aminomethyl)pyrimidin-4-yl)oxy)methyl)phenyl)(3-methyl-6,7-dihydro-1H-pyrazolo[4,3-c]pyridin-5(4H)-yl)methanone], with < 100 nM; and `NCc1cc(OCc2cccc(C(=O)Nc3cccc(C(F)(F)F)c3)c2)ncn1` [Compound 1-77, 3-(((6-(Aminomethyl)pyrimidin-4-yl)oxy)methyl)-N-(3-(trifluoromethyl)phenyl)benzamide], with < 100 nM; and `NCc1cc(Oc2cccc3c2ccn3C2COC2)ncn1` [Compound 1-49, (6-((1-(Oxetan-3-yl)-1H-indol-4-yl)oxy)pyrimidin-4-yl)methanamine], with 100 to 1000 nM. Under `NCc1cc(Oc2cccc(C(=O)N3CCc4c([nH]c5ncccc45)C3)c2)ncn1` [Compound 1-71, (3-((6-(Aminomethyl)pyrimidin-4-yl)oxy)phenyl)(5H-pyrrolo[2,3-b:5,4-c′]dipyridin-7(6H,8H,9H)-yl)methanone] stands < 100 nM.
